# From ChEMBL document CHEMBL1201862, “PubChem BioAssay data set” (2004)
# Active and inactive are the calls of the source.
# How the values were obtained:
# [1] = target: T1, Dual specificity protein phosphatase 6 (Rattus norvegicus, UniProt Q64346); assay: MKP-3 phosphatase inhibitors, primary screen, biochemical, rat enzyme, in vitro (AID 425)
# T1 sequence (Q64346 whole entry): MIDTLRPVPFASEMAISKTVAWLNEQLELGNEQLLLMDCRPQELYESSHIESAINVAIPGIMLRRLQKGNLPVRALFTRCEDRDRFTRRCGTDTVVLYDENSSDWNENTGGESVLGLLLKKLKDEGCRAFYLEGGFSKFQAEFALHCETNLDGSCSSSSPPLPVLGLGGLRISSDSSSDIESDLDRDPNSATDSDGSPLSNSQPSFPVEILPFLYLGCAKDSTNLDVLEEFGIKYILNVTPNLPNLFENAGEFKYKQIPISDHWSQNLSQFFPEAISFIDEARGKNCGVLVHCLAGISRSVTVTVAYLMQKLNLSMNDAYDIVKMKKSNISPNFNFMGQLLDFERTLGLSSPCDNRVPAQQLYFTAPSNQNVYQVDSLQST
# [2] = Luminescence Cell-Based Dose Response to Identify Activators of 5'UTR Stem-Loop Driven Prion Protein mRNA Translation in H4-C Neuroglioblastoma Cells. [Related pubchem assays: 1829 (Project Summary), 1814 (Primary HTS)]; type: functional
# [3] = Luminescence Cell-Based Dose Response HTS to Identify Activators of Luciferase Translation or Activity in H4 […] Cells. [Related pubchem assays: 1829 (Project Summary), 1814 (Primary HTS)]; type: functional
# [4] = Luminescence Cell-Based Dose Response to Identify Activators of Luciferase Translation or Activity in H4-C Neuroglioblastoma Cells. [Related pubchem assays: 1829 (Project Summary), 1814 (Primary HTS)]; type: functional
# [5] = Luminescence Cell-Based Dose Confirmation to Identify Activators of 5'UTR Stem-Loop Driven Alpha-Synuclein mRNA Translation in H4 Neuroglioblastoma Cells. [Related pubchem assays: 1829 (Project Summary), 1814 (Primary HTS)]; type: functional
# Cytochrome P450 2C9 = Cytochrome P450 2C9 (Homo sapiens, UniProt P11712)
# Cytochrome P450 2C9, sequence (P11712 whole entry): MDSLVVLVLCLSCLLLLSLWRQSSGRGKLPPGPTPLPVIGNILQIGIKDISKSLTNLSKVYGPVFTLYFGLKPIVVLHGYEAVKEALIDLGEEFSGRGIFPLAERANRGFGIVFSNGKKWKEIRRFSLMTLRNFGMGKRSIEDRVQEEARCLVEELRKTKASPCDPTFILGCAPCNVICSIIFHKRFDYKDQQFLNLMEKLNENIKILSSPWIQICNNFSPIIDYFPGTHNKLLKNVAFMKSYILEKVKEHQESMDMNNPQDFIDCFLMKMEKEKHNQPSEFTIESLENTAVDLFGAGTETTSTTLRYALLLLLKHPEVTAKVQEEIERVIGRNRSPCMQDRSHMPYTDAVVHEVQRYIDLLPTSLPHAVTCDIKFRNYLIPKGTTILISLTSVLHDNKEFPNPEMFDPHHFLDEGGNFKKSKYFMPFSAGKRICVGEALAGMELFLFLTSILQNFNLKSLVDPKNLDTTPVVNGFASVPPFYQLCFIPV
# [6] = inhibitors of intracellular T. cruzi replication, confirmation, NIH3T3 host cells, beta-gal luminescence (AID 2044); type: functional, cell-based;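 note: intracellular parasites grown in NIH/3T3 mouse fibroblasts as host cells; luminescent beta-galactosidase reporter signal from transgenic T. cruzi replicating inside host cells; inhibitors lower the luminescence signal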
# [7] = cytotoxicity toward NIH3T3 fibroblasts, dose response, counter-screen, cell-based, ATP luminescence, mouse fibroblasts (AID 2010); type: functional;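 note: cells exposed to compound for about 90 hours before reading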
# [8] = target: T2, Neuropeptide Y receptor type 1 (Homo sapiens, UniProt P25929); type: functional;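 note: HEK293 cells with a CNG channel challenged with NPY then isoproterenol; potency as antagonist that reverses NPY suppression of cAMP signal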
# T2 sequence (P25929 whole entry): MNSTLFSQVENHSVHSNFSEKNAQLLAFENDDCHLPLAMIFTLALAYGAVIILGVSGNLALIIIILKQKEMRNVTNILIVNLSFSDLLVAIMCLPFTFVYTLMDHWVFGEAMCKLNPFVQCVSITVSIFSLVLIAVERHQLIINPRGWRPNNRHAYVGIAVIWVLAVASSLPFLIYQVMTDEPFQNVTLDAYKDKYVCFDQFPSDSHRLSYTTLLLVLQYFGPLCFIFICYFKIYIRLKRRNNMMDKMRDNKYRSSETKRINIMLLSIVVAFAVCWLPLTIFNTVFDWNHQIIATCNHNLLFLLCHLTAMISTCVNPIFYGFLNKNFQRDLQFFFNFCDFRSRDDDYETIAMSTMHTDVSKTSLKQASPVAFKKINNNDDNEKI
# [9] = target: T3, Neuropeptide Y receptor type 2 (Homo sapiens, UniProt P49146); type: functional, cell-based;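 note: HEK293 cells expressing the receptor and a CNG channel; stimulus was NPY near EC95 followed by isoproterenol to raise cAMP; antagonist potency measured as restoring cAMP signal that NPY suppresses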
# T3 sequence (P49146 whole entry): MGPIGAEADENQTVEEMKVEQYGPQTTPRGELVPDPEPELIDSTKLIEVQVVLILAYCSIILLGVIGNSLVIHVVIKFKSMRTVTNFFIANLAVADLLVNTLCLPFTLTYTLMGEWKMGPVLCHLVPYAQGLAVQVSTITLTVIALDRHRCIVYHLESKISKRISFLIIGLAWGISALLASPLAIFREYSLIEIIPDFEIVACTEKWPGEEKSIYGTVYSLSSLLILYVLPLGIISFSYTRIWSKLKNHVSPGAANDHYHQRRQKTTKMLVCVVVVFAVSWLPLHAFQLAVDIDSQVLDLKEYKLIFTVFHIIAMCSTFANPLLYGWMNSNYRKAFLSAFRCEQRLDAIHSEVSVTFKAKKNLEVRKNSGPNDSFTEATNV
# [10] = Luminescence Cell-Based Dose Retest to Confirm Inhibitors of Cancer Stem Cells. [Related pubchem assays (depositor defined):AID2717, AID2721]; type: functional; settings: Homo sapiens
# [11] = target: G-protein coupled receptor 55 (Homo sapiens, UniProt Q9Y2T6); assay: GPR55 antagonists blocking LPI-driven arrestin recruitment, primary screen, imaging, U2OS, beta-arrestin-GFP, LPI agonist (AID 2013); type: functional;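 note: antagonist potency measured as reduced agonist-driven arrestin aggregation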
# G-protein coupled receptor 55, sequence (Q9Y2T6 whole entry): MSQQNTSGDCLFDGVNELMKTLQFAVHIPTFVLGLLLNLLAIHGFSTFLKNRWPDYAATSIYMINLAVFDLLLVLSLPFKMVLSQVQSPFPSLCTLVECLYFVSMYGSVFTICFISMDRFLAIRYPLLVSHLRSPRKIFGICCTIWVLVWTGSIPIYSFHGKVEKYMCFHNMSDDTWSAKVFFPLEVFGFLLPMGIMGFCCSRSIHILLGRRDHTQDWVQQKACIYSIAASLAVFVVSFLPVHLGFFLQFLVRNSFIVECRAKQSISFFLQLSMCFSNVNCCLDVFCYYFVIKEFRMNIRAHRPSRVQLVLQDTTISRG
# [12] = M. tuberculosis H37Rv growth inhibitors, H37Rv strain (AID 1626); type: functional
# Large T antigen = Large T antigen (Simian virus 40, UniProt P03070); type: functional, Betapolyomavirus macacae;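 note: Confirmatory-stage PubChem screen for compounds that inhibit SV40 T antigen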
# Large T antigen, sequence (P03070 whole entry): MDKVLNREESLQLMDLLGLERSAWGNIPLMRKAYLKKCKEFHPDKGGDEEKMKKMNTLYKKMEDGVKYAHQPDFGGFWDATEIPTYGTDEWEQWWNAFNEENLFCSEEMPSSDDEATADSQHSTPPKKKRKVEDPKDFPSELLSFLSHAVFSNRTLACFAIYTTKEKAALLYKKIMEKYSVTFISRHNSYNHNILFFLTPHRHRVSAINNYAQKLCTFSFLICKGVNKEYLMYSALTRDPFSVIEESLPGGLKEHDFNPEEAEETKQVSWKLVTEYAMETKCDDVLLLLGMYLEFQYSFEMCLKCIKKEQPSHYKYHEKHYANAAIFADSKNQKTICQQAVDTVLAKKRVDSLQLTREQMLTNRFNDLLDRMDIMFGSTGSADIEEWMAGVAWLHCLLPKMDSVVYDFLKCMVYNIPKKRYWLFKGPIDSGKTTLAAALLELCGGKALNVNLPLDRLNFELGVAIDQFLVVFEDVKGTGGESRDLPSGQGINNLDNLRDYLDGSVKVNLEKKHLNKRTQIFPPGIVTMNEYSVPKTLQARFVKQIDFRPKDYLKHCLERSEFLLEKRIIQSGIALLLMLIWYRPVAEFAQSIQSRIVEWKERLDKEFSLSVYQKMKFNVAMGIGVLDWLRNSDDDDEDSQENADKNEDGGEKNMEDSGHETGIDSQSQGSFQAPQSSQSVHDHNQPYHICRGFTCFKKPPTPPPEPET
# [13] = target: T4, Mannose-6-phosphate isomerase (Homo sapiens, UniProt P34949); assay: inhibitors of human PMI, primary screen, biochemical, fluorescence intensity, coupled assay (AID 1209)
# T4 sequence (P34949 whole entry): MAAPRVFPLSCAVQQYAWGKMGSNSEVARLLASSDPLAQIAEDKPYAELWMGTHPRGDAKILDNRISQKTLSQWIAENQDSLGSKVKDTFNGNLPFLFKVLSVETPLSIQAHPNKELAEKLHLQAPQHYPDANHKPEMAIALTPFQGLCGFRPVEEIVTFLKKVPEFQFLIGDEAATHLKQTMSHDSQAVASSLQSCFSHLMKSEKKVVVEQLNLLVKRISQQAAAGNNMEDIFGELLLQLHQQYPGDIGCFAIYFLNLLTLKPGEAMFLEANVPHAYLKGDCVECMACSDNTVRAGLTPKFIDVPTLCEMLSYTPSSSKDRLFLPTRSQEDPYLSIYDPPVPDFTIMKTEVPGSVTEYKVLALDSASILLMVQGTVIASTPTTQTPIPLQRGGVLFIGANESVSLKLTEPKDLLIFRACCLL
# [14] = target: T4, Mannose-6-phosphate isomerase; assay: human PMI inhibitors, high substrate, primary screen, biochemical, fluorescence intensity, high mannose 6-phosphate (AID 1220)
# Bcl-2-related protein A1 [15] = target: T5, Bcl-2-related protein A1 (Mus musculus, UniProt Q07440); assay: Bfl-1 inhibitors blocking BH3 peptide binding, confirmation, biochemical, TR-FRET, mouse Bfl-1 (AID 621);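 note: TR-FRET binding of GST-Bfl-1 to FITC-labelled Bid peptide via terbium antibody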
# T5 sequence (Q07440 whole entry): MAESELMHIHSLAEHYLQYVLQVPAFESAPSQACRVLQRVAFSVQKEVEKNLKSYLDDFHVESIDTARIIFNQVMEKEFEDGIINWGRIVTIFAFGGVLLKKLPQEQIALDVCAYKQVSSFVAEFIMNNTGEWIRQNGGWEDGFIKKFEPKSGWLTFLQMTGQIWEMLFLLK
# Bcl-2-related protein A1 [16] = target: T5, Bcl-2-related protein A1; assay: Bfl-1 binding inhibitors, SAR follow-up, biochemical, fluorescence polarization (AID 1070)
# [17] = target: T6, Replicative DNA helicase DnaB (Mycobacterium tuberculosis, UniProt P9WMR3); assay: DnaB intein splicing inhibitors, dose response, biochemical, cell-free fluorescence (AID 449749); type: functional
# T6 sequence (P9WMR3 whole entry): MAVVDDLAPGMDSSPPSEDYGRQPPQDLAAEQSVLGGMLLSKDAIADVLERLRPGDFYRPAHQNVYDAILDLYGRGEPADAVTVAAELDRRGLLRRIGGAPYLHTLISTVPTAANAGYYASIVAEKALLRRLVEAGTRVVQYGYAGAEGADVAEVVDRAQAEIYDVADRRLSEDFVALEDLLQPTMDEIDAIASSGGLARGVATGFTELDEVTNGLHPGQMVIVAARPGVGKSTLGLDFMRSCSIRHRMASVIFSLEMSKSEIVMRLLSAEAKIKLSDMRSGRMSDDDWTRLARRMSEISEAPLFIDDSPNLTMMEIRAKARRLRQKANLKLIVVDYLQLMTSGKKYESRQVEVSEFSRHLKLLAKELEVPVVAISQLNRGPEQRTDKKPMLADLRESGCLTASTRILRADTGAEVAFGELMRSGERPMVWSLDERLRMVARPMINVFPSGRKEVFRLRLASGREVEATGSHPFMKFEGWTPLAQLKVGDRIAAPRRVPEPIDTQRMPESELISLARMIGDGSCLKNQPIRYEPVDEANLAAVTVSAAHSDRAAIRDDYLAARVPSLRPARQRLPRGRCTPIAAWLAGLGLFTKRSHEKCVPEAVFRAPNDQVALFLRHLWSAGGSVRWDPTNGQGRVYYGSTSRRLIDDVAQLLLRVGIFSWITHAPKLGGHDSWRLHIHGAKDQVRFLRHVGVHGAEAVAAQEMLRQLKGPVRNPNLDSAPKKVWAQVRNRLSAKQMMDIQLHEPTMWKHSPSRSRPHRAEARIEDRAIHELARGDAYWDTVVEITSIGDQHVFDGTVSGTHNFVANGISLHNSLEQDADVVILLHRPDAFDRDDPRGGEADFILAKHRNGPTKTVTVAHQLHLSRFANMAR
# Vero = Vero cell cytotoxicity, cytotoxicity control for flavivirus capping enzyme inhibitors (AID 588742); type: functional; settings: Chlorocebus sabaeus
# Protein RecA = target: T7, Protein RecA (Mycobacterium tuberculosis, UniProt P9WHJ3); assay: Fluorescence Cell-Free Homogeneous Dose Retest to Identify Inhibitors of RecA-Intein Splicing Activity. [Related pubchem assays (depositor defined):AID2097, AID2223, AID489010, AID492950]; type: functional
# T7 sequence (P9WHJ3 whole entry): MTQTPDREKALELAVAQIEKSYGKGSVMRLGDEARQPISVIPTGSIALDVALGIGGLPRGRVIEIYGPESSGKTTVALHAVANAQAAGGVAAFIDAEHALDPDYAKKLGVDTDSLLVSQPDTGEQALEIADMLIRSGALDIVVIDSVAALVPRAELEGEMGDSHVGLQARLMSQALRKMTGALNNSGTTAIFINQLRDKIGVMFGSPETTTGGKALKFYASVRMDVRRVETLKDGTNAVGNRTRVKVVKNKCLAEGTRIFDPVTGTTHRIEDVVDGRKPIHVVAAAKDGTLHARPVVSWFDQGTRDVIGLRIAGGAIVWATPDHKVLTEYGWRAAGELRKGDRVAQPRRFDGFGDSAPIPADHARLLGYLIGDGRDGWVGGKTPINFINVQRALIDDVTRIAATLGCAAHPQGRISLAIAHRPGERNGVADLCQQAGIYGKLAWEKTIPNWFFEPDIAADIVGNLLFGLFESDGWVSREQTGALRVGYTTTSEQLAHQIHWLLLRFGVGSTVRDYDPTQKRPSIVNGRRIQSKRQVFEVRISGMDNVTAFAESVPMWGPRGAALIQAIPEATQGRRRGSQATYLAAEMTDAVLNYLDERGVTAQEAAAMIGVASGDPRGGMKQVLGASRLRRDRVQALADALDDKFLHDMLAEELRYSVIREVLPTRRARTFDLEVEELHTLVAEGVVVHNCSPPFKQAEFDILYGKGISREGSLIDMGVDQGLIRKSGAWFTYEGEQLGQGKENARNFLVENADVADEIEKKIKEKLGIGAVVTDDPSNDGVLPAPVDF
# [18] = target: T8, Polyadenylate-binding protein 1 (Homo sapiens, UniProt P11940); assay: PABP1 MLLE–PAM2 interaction inhibitors, dose response, miRNA deadenylation inhibitor project, biochemical, fluorescence polarization, Cy5-PAM2 peptide, secondary (AID 602260); type: functional; settings: read-out: IC50_Mean
# T8 sequence (P11940 whole entry): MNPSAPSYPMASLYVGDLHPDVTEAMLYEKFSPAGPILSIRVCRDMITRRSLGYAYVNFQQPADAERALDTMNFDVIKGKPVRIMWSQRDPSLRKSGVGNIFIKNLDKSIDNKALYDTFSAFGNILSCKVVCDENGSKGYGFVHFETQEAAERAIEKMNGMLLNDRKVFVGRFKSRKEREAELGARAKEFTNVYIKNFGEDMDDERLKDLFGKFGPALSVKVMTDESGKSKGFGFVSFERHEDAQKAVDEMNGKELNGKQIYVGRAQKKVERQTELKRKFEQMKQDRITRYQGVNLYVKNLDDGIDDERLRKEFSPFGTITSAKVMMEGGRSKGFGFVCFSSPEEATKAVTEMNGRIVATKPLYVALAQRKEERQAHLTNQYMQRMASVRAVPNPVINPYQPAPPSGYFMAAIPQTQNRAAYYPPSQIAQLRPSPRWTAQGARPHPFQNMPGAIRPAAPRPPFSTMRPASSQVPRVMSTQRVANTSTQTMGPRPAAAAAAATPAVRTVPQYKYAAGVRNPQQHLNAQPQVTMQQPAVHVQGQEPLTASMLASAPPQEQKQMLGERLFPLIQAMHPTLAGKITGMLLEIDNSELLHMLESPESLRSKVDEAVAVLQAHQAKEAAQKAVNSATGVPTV
# [19] = target: T8, Polyadenylate-binding protein 1; assay: PABP1 MLLE–PAM2 binding inhibitor potency, dose response, biochemical, fluorescence polarization, FITC-PAM2 peptide (AID 602259); type: functional; settings: read-out: IC50_Mean
# [20] = target: Glyceraldehyde-3-phosphate dehydrogenase (Homo sapiens, UniProt P04406)
# Glyceraldehyde-3-phosphate dehydrogenase, sequence (P04406 whole entry): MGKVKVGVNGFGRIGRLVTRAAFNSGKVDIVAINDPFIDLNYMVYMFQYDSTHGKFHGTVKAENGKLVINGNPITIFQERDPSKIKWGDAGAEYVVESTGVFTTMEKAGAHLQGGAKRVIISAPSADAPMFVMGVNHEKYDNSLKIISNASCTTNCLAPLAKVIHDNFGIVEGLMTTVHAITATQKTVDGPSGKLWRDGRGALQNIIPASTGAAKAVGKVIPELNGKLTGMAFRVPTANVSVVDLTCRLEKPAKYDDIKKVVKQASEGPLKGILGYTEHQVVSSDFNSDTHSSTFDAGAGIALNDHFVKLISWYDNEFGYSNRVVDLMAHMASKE
smiles,measurement,setting,value
Cc1c(N=c2c(=O)c3ccccc3c2=O)c(=O)n(-c2ccccc2)n1C,IC50,[1],> 100 µM (not active)
Cc1nc2c3cnn(-c4ccc(C)c(C)c4)c3ncn2n1,EC50,[2],0.298 µM (active)
same,EC50,[3],< 0.1 µM (active)
same,EC50,[4],0.341 µM (active)
same,EC50,[5],0.424 µM (active)
same,AC50,Cytochrome P450 2C9,20 µM (inconclusive)
O=C(N/N=C/c1ccc([N+](=O)[O-])o1)c1cn(-c2ccccc2)nc1-c1ccccc1,EC50,[6],< 0.1 µM (active)
same,EC50,[7],> 60 µM (not active)
same,EC50,cells,0.054 µM (active)
Cc1nc2ccc(F)cc2cc1C(=O)Nc1ccc(Cl)c(Cl)c1,IC50,[8],8.84 µM (active)
same,IC50,[9],8.88 µM (active)
CN1CCC(OC(=O)c2cccc(Cl)c2)CC1,EC50,[6],< 0.1 µM (active)
same,EC50,[7],> 60 µM (not active)
same,AC50,[10],1.3 µM (active)
same,EC50,cells,0.102 µM (active)
O=C1N=C(N2CCOCC2)S/C1=C/c1ccc(-c2ccc(F)cc2)o1,IC50,[11],2.93 µM (active)
same,IC50,[12],> 100 µM (active)
COc1ccc2c(c1)-c1nc(/N=C/c3ccc(O)c(OC)c3)sc1CC2,IC50,Large T antigen,15.5 µM (active)
same,IC50,[13],> 50 µM (not active)
same,IC50,[14],> 50 µM (not active)
Clc1nc2ccccc2cc1-c1nnn(-c2ccccc2)n1,IC50,Bcl-2-related protein A1 [15],> 100 µM (not active)
same,IC50,Bcl-2-related protein A1 [16],> 100 µM (not active)
Cc1nnc2n(c1=O)N=C(c1ccc(Cl)cc1)CS2,EC50,[2],0.355 µM (active)
same,EC50,[3],< 0.1 µM (inconclusive)
same,EC50,[4],0.249 µM (active)
same,EC50,[5],0.244 µM (active)
CCOC(=O)c1c(C)oc2c1c(/C=N/CCO)c(O)c1ccccc12,IC50,[13],5.36 µM (active)
same,IC50,[14],4.48 µM (active)
same,AC50,[17],> 380 µM (inactive)
same,CC50,Vero,32.9 µM (active)
same,EC50,Protein RecA,0.618 µM (active)
same,IC50,[18],> 66 µM (inactive)
same,IC50,[19],> 66 µM (inactive)
CC1NC(C)C(C)N(C2=C(Cl)C(=O)N(c3ccc(Cl)c(Cl)c3)C2=O)C1C (stereo unspecified),IC50,[20],> 100 µM (not active)
same,IC50,Bcl-2-related protein A1 [15],47 µM (active)
same,IC50,Bcl-2-related protein A1 [16],> 100 µM (not active)
